In PubChem BioAssay (NCI):
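Dose response: 5 concentrations. Exposure: 48 h. Format: 96-well plates. Endpoint: linear interpolation; highest concentration if not reached. Here, GI50 denotes the concentration required for 50% inhibition of growth. At the TGI there is no net growth.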

Tests used:
Assay in all cases: NCI anticancer screen, dose series, 48 h
OVCAR-8 ovarian = system: OVCAR-8 ovarian
OVCAR-5 ovarian = system: OVCAR-5 ovarian
SNB-75 CNS = system: SNB-75 CNS
OVCAR-3 ovarian = system: OVCAR-3 ovarian
U251 CNS = system: U251 CNS
EKVX NSCLC = system: EKVX NSCLC
ACHN renal = system: ACHN renal
MCF7 breast = system: MCF7 breast
SK-OV-3 ovarian = system: SK-OV-3 ovarian
SNB-19 CNS = system: SNB-19 CNS

| Structure (SMILES) | TGI (OVCAR-8 ovarian) | TGI (OVCAR-5 ovarian) | TGI (SNB-75 CNS) | TGI (OVCAR-3 ovarian) | TGI (U251 CNS) | TGI (EKVX NSCLC) | TGI (ACHN renal) | TGI (MCF7 breast) | TGI (SK-OV-3 ovarian) | TGI (SNB-19 CNS) | GI50 (OVCAR-8 ovarian) | GI50 (OVCAR-5 ovarian) | GI50 (SNB-75 CNS) | GI50 (OVCAR-3 ovarian) | GI50 (U251 CNS) | GI50 (EKVX NSCLC) | GI50 (ACHN renal) | GI50 (MCF7 breast) | GI50 (SK-OV-3 ovarian) | GI50 (SNB-19 CNS) |
| --- | --- | --- | --- | --- | --- | --- | --- | --- | --- | --- | --- | --- | --- | --- | --- | --- | --- | --- | --- | --- |
| CN(C)c1ccc(/C=C2\C[N+](C)(C)C/C(=C\c3ccc(N(C)C)cc3)C2=O)cc1 | 65.7 µM | 96.5 µM | 67.3 µM | 17.2 µM | 25 µM | > 100 µM | > 100 µM | 30.5 µM | 73.1 µM | 45.4 µM | – | – | – | – | – | – | – | – | – | – |
| CCOC(=O)c1cc(-c2ccc([N+](=O)[O-])cc2)n(-c2ccc(C(=O)O)c(O)c2)c1C | 43.7 µM | 35.3 µM | 22.1 µM | 9.53 µM | 14.1 µM | 18 µM | 9.38 µM | 13.7 µM | 23 µM | 19.1 µM | 5.29 µM | 17.3 µM | 7.65 µM | 2.86 µM | 3.61 µM | 5.2 µM | 2.94 µM | 3.58 µM | 10.8 µM | 5.66 µM |
| CCCCCCCCCCCCOC1C(CNCC2OC3OC(C)(C)OC3C2NC(=O)Nc2ccc(C(=O)OCC)cc2)OC2OC(C)(C)OC21 (configuration not stated) | 4.3 µM | 17 µM | 21.1 µM | 11.5 µM | 3.71 µM | 18.9 µM | 10.9 µM | 2.92 µM | 23.3 µM | 27.7 µM | 2.16 µM | 4.18 µM | 5.52 µM | 3.41 µM | 1.94 µM | 6.08 µM | 3.43 µM | 1.35 µM | 10.4 µM | 13.7 µM |
| N#Cc1cnn2ccn(C3OC(COC(=O)c4ccccc4)C(OC(=O)c4ccccc4)C3OC(=O)c3ccccc3)c12 (configuration not stated) | > 46.4 µM | > 21.5 µM | 21.5 µM | > 21.5 µM | > 21.5 µM | > 21.5 µM | > 21.5 µM | > 46.4 µM | > 21.5 µM | > 21.5 µM | – | – | – | – | – | – | – | – | – | – |
| CCOc1ccc2nc(NC(=O)/C(CC(=O)CC(C3=C(O)c4ccccc4CC3=O)c3ccccc3)=N\O)sc2c1 (configuration not stated) | > 100 µM | > 100 µM | > 100 µM | > 100 µM | > 100 µM | > 100 µM | > 100 µM | > 100 µM | > 100 µM | > 100 µM | – | – | – | – | – | – | – | – | – | – |
| CCN1CCN(c2nc(NCCNc3ccnc4cc(Cl)ccc34)c3ccccc3n2)CC1 | 5.96 µM | 9.14 µM | 5.85 µM | 4.2 µM | 10.1 µM | 11.6 µM | 3.89 µM | 11 µM | 4.71 µM | 14 µM | 1.89 µM | 2.56 µM | 1.94 µM | 1.87 µM | 2.28 µM | 2.62 µM | 1.93 µM | 1.11 µM | 2.13 µM | 1.99 µM |
| CN(C)c1ccc2c(c1)oc(=O)c1ccccc12 | 25.4 µM | 30.2 µM | 31.9 µM | 16.4 µM | 24.3 µM | 52.3 µM | 44.6 µM | 17.1 µM | – | 28.3 µM | – | – | – | – | – | – | – | – | – | – |
| CC1=C(CCCOC(=O)NCCCl)C2=C(C)C3(CC3)[C@@](C)(O)C(=O)C2=C1 | > 100 µM | > 100 µM | 3.84 µM | 9.9 µM | > 100 µM | > 100 µM | – | > 100 µM | 6.46 µM | > 100 µM | 3.4 µM | 3.13 µM | 1.75 µM | 2.95 µM | 3.97 µM | 3.45 µM | – | 2.24 µM | 2.35 µM | 3.83 µM |
| CC(=O)c1ccc(N(/C=C/C(=O)C(F)(F)F)CC(=O)c2ccc(Cl)c(Cl)c2)cc1 | 31.4 µM | 35.9 µM | 38.3 µM | 27.5 µM | 27.7 µM | 38.5 µM | 27.7 µM | 65.3 µM | 38.9 µM | 41.6 µM | 16.1 µM | 18.6 µM | 18 µM | 13.9 µM | 14 µM | 19.9 µM | 14.4 µM | 15.3 µM | 18.1 µM | 19.3 µM |
| COc1cccc(-c2nn(-c3ccccc3)cc2-c2ccnc(NCCCNS(=O)(=O)c3cccc(F)c3)c2)c1 | > 100 µM | > 100 µM | > 100 µM | > 100 µM | > 100 µM | > 100 µM | > 100 µM | > 100 µM | > 100 µM | – | 3.93 µM | > 100 µM | 4.57 µM | 4.88 µM | 4.83 µM | 2.79 µM | 3.56 µM | 3.21 µM | 3.18 µM | – |
| O=C1c2ccccc2-c2c1c1cc3c(cc1c(=O)n2CCCCl)OCO3 | > 100 µM | – | > 100 µM | 32 µM | 67.4 µM | > 100 µM | 98.7 µM | > 100 µM | > 100 µM | > 100 µM | 22.6 µM | – | 0.58 µM | 11.4 µM | 22.8 µM | > 100 µM | 24.5 µM | 17.7 µM | > 100 µM | > 100 µM |
| COc1ccc(CNC(=O)COc2ccc(/C=N/Nc3nc4ccccc4s3)cc2)cc1 | > 100 µM | > 100 µM | 3.29 µM | 5.42 µM | 5.43 µM | 32.5 µM | 3.42 µM | 27.5 µM | – | 12.6 µM | 3.93 µM | 4.57 µM | 1.07 µM | 2.1 µM | 1.73 µM | 2.98 µM | 1.67 µM | 3.52 µM | – | 2.69 µM |
| Clc1cccc(NC=Nc2ccc(-c3nc4ccccc4s3)cc2)c1 | 30.6 µM | > 50 µM | – | 22.7 µM | 15.4 µM | 29.9 µM | 27.6 µM | 35.6 µM | > 50 µM | > 50 µM | 13.1 µM | 23.6 µM | – | 9.32 µM | 7.85 µM | 3.97 µM | 11.7 µM | 9.44 µM | 31.7 µM | 15.2 µM |
| COc1cc2c(c(OC)c1OC)-c1ccc(NCc3ccccc3)c(=O)cc1[C@@H](NC(C)=O)CC2 | 65 µM | > 100 µM | 25.2 µM | 2.82 µM | 11.8 µM | – | > 66.6 µM | 19.7 µM | 0.833 µM | > 100 µM | 0.444 µM | 0.723 µM | 0.318 µM | 0.309 µM | 0.368 µM | – | 1.39 µM | 0.337 µM | 0.294 µM | 0.638 µM |
